GI50 and TGI data for twelve compounds are collected here from PubChem BioAssay (NCI).

Among the test systems are CCRF-CEM leukemia; NCI/ADR-RES ovarian; TK-10 renal; SF-268 CNS; LOX IMVI melanoma; NCI-H226 lung; HCC-2998 colon; SNB-19 CNS; RXF 393 renal; SF-295 CNS.
What all share (experiment): inhibition of tumour cell growth, NCI panel, 48 h

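Tested at 5 concentrations; 48 h exposure; 96-well plates; endpoints linearly interpolated, else capped at highest concentration. At the GI50, growth is halved. TGI: concentration producing complete growth inhibition.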

Regarding `CC(=O)c1c(C(F)(F)F)n([O-])c2ccc(Cl)cc2[n+]1=O`, the GI50 with CCRF-CEM leukemia is 0.0108 µM; with NCI/ADR-RES ovarian, 3.4 µM; with TK-10 renal it was 0.838 µM; with SF-268 CNS it was 1.35 µM; in the assay on LOX IMVI melanoma, 0.652 µM; in the assay on NCI-H226 lung, 1.4 µM. In addition, the GI50 is 1.03 µM in the assay with HCC-2998 colon, 4.75 µM with SNB-19 CNS, 5.11 µM in the assay on RXF 393 renal and 2.23 µM in the assay on SF-295 CNS. For the same compound, the TGI is 2.22 µM with CCRF-CEM leukemia; more than 23.1 µM in the assay with NCI/ADR-RES ovarian; 2.66 µM with TK-10 renal; 8.78 µM with SF-268 CNS; 3.92 µM in the assay on LOX IMVI melanoma; 3.43 µM in the assay with NCI-H226 lung. In addition, the TGI is 2.41 µM in the assay on HCC-2998 colon, more than 27.6 µM in the assay with SNB-19 CNS, 25.4 µM in the assay with RXF 393 renal and 5.92 µM in the assay with SF-295 CNS.

Consider `CC(C)(C)[Si](C)(C)OCC1OC(n2cnc3c(NC(=O)c4ccccc4)ncnc32)CC1O` (stereo unspecified), for which the TGI in the assay with CCRF-CEM leukemia is 53.4 µM; with NCI/ADR-RES ovarian, 98.7 µM; in the assay with TK-10 renal, more than 100 µM; with SF-268 CNS, more than 100 µM; in the assay on LOX IMVI melanoma, 33.9 µM; with NCI-H226 lung it was 66.5 µM. Besides, the TGI with HCC-2998 colon amounted to 88.6 µM; in the assay on SNB-19 CNS, 74.3 µM; in the assay with RXF 393 renal, 40.4 µM; with SF-295 CNS, 44.2 µM.

`C/C(=N\NC(=O)c1ccncc1)c1ccc2ccccc2c1O`: the TGI in the assay on CCRF-CEM leukemia is more than 100 µM; in the assay with NCI/ADR-RES ovarian, more than 54.3 µM; in the assay on TK-10 renal, more than 100 µM; with SF-268 CNS, 40.8 µM; with LOX IMVI melanoma, more than 100 µM; in the assay with NCI-H226 lung, 12.1 µM. For the same compound, the TGI with HCC-2998 colon was 53.8 µM; in the assay on SNB-19 CNS, more than 100 µM; with RXF 393 renal, more than 79.6 µM; in the assay on SF-295 CNS, 20.7 µM.

Regarding `CCN(CC)c1cc(/C=C/c2ccc(OC)c(OC)c2)nc2cc(F)c(F)cc12`, the GI50 in the assay on CCRF-CEM leukemia is 3.18 µM; in the assay on NCI/ADR-RES ovarian it was 7.52 µM; in the assay on TK-10 renal, 2.99 µM; with SF-268 CNS it was 3.15 µM; with LOX IMVI melanoma, 7.24 µM; with NCI-H226 lung, 2.7 µM. Also, the GI50 in the assay on HCC-2998 colon was 70.6 µM; with SNB-19 CNS, 2.34 µM; with RXF 393 renal, 1.8 µM; in the assay with SF-295 CNS, 2.03 µM. The TGI was 11 µM in the assay on CCRF-CEM leukemia; more than 100 µM in the assay with NCI/ADR-RES ovarian; 8.75 µM with TK-10 renal; 11.4 µM with SF-268 CNS; 37.7 µM in the assay on LOX IMVI melanoma; 9.07 µM in the assay with NCI-H226 lung. Besides, the TGI in the assay with HCC-2998 colon was more than 100 µM; in the assay with SNB-19 CNS, 7.09 µM; in the assay on RXF 393 renal, 4.01 µM; with SF-295 CNS, 4.63 µM.

For the compound `COc1ccc(Nn2c(SCC(=O)Nc3nc(-c4ccc(Cl)cc4)cs3)nc(C)c2C)cc1`, the GI50 is 3.82 µM with CCRF-CEM leukemia; 2.89 µM in the assay on NCI/ADR-RES ovarian; 14.8 µM with TK-10 renal; 2.81 µM in the assay with SF-268 CNS; 3.02 µM in the assay with LOX IMVI melanoma; 3.26 µM in the assay on NCI-H226 lung. Besides, the GI50 in the assay on HCC-2998 colon was 3.07 µM; in the assay with SNB-19 CNS, 6.19 µM; in the assay on RXF 393 renal it was 3.53 µM; in the assay on SF-295 CNS it was 2.18 µM. In addition, the TGI is more than 100 µM in the assay with CCRF-CEM leukemia; more than 100 µM with NCI/ADR-RES ovarian; 80.9 µM with TK-10 renal; more than 100 µM in the assay on SF-268 CNS; 44.2 µM with LOX IMVI melanoma; more than 100 µM with NCI-H226 lung. For the same compound, the TGI with HCC-2998 colon was 9.91 µM; in the assay with SNB-19 CNS, more than 100 µM; with RXF 393 renal it was 9.64 µM; with SF-295 CNS it was more than 100 µM.

Consider `CN1CCCNc2c(c(=O)c2=O)NCCCN(C)CCCNc2c(c(=O)c2=O)NCCCN(C)CCCNc2c(c(=O)c2=O)NCCCN(C)CCCNc2c(c(=O)c2=O)NCCCN(C)CCCNc2c(c(=O)c2=O)NCCCN(C)CCCNc2c(c(=O)c2=O)NCCCN(C)CCCNc2c(c(=O)c2=O)NCCC1`, for which the GI50 with CCRF-CEM leukemia is 2.24 µM; with NCI/ADR-RES ovarian, 5.96 µM; in the assay with TK-10 renal it was 1.71 µM; with SF-268 CNS it was 1.82 µM; with LOX IMVI melanoma it was 10.5 µM; in the assay on NCI-H226 lung it was 8.43 µM. Further, the GI50 in the assay with HCC-2998 colon is 7.18 µM; in the assay on SNB-19 CNS, 2.59 µM; with RXF 393 renal, 2.54 µM; with SF-295 CNS it was 5.52 µM. Further, the TGI in the assay on CCRF-CEM leukemia was 49.3 µM; in the assay on NCI/ADR-RES ovarian it was 26.7 µM; in the assay with TK-10 renal it was 8.24 µM; in the assay with SF-268 CNS, 18.3 µM; in the assay with LOX IMVI melanoma, more than 50 µM; in the assay on NCI-H226 lung it was 21.8 µM. Also, the TGI came out at 22.1 µM with HCC-2998 colon, 33.9 µM in the assay with SNB-19 CNS, 12.7 µM in the assay with RXF 393 renal and 12.9 µM in the assay with SF-295 CNS.

Turning to `O=[N+]([O-])c1ccc(-c2nc(-c3ccccc3)c(-c3ccccc3)n2-c2ccccc2)cc1`, the GI50 was 2.83 µM in the assay on CCRF-CEM leukemia; 2.68 µM in the assay on NCI/ADR-RES ovarian; 4.01 µM in the assay with TK-10 renal; 3.7 µM in the assay on SF-268 CNS; 2.4 µM in the assay with LOX IMVI melanoma; 4.57 µM in the assay with NCI-H226 lung. The GI50 in the assay on HCC-2998 colon was 2.07 µM; in the assay with SNB-19 CNS it was 3.75 µM; in the assay with RXF 393 renal, 3.08 µM; with SF-295 CNS it was 2.68 µM. Also, the TGI in the assay on CCRF-CEM leukemia is more than 23.8 µM; with NCI/ADR-RES ovarian, 7.88 µM; in the assay on TK-10 renal it was 16.9 µM; in the assay on SF-268 CNS, 17.6 µM; in the assay with LOX IMVI melanoma, 6.86 µM; with NCI-H226 lung it was more than 24.5 µM. For the same compound, the TGI in the assay on HCC-2998 colon was 4.1 µM; in the assay with SNB-19 CNS, more than 48.8 µM; with RXF 393 renal it was 9.78 µM; in the assay with SF-295 CNS, 8.25 µM.

With `CC(C)[C@@]12C[C@@H](OC(=O)[C@H]3CO3)[C@@](C)(O1)[C@@H]1CC[C@@H](C)[C@H]1[C@@H]2OC(=O)/C=C/c1ccccc1`, the GI50 is 18 µM with CCRF-CEM leukemia; 0.799 µM in the assay on NCI/ADR-RES ovarian; 33.9 µM with TK-10 renal; 0.777 µM with SF-268 CNS; 12.6 µM in the assay on LOX IMVI melanoma; 13.8 µM in the assay with NCI-H226 lung. Also, the GI50 was 17.8 µM with HCC-2998 colon, 21.6 µM in the assay with SNB-19 CNS, 1.3 µM in the assay with RXF 393 renal and 15.3 µM in the assay with SF-295 CNS. The TGI was more than 84.7 µM with CCRF-CEM leukemia; 35.9 µM in the assay with NCI/ADR-RES ovarian; more than 100 µM with TK-10 renal; more than 81.2 µM in the assay on SF-268 CNS; 46.3 µM in the assay with LOX IMVI melanoma; 32.2 µM in the assay with NCI-H226 lung. Moreover, the TGI in the assay with HCC-2998 colon was found to be 41.5 µM; in the assay with SNB-19 CNS, 74.6 µM; in the assay on RXF 393 renal it was 17.8 µM; in the assay on SF-295 CNS, 35.5 µM.

As for `COc1ccc(NC(=O)n2nc(N)c3ccccc32)cc1OC`, the GI50 with CCRF-CEM leukemia was 36.7 µM; in the assay on NCI/ADR-RES ovarian, 37.6 µM; in the assay on TK-10 renal it was 92.4 µM; in the assay on SF-268 CNS it was 49.6 µM; in the assay on LOX IMVI melanoma it was 49.3 µM; in the assay on NCI-H226 lung, 83.1 µM. The GI50 was 61.1 µM with HCC-2998 colon, more than 100 µM in the assay on SNB-19 CNS, 95.2 µM in the assay with RXF 393 renal and 37.6 µM in the assay on SF-295 CNS. Besides, the TGI in the assay with CCRF-CEM leukemia, in the assay with NCI/ADR-RES ovarian, in the assay with TK-10 renal, with SF-268 CNS, with LOX IMVI melanoma and with NCI-H226 lung was more than 100 µM in each case. The TGI with HCC-2998 colon, in the assay with SNB-19 CNS, in the assay on RXF 393 renal and with SF-295 CNS was more than 100 µM in each case.

For the compound `COc1cc2c(cc1OCCOS(C)(=O)=O)N=C[C@@H]1CCCN1C2=O`, the GI50 was 14.5 µM with CCRF-CEM leukemia; 13.5 µM in the assay with NCI/ADR-RES ovarian; 18.1 µM in the assay on TK-10 renal; 15.7 µM with LOX IMVI melanoma; 15.4 µM in the assay with NCI-H226 lung. Moreover, the TGI in the assay with CCRF-CEM leukemia is 54.9 µM; with NCI/ADR-RES ovarian it was 26.7 µM; in the assay on TK-10 renal it was 33.2 µM; in the assay on SF-268 CNS, more than 100 µM; with LOX IMVI melanoma, 29.5 µM; in the assay on NCI-H226 lung, 33.5 µM. Also, the TGI with HCC-2998 colon was more than 100 µM; in the assay on SNB-19 CNS, more than 100 µM; in the assay with RXF 393 renal, more than 100 µM; in the assay with SF-295 CNS, 75.4 µM.

Take `COc1ccccc1-n1c(-c2cc(O)ccc2C)cn2c3c(=O)[nH]c(=O)n(C)c3nc12`: the GI50 with CCRF-CEM leukemia is more than 100 µM; in the assay with NCI/ADR-RES ovarian, more than 100 µM; in the assay on TK-10 renal, 13.3 µM; in the assay on SF-268 CNS, 5.07 µM; in the assay on LOX IMVI melanoma, 2.28 µM; with NCI-H226 lung, 78.7 µM. Also, the GI50 is more than 100 µM in the assay on HCC-2998 colon, more than 100 µM in the assay with SNB-19 CNS, 0.872 µM in the assay with RXF 393 renal and 5.34 µM in the assay on SF-295 CNS. Besides, the TGI is more than 100 µM in the assay on CCRF-CEM leukemia; more than 100 µM in the assay on NCI/ADR-RES ovarian; 48.7 µM in the assay on TK-10 renal; more than 100 µM with SF-268 CNS; 16 µM in the assay on LOX IMVI melanoma; more than 100 µM with NCI-H226 lung. The TGI was more than 100 µM with HCC-2998 colon, more than 100 µM in the assay on SNB-19 CNS, 4.11 µM with RXF 393 renal and more than 100 µM in the assay on SF-295 CNS.

As to `CN(C)c1ccc(/C=C(/NC(=O)c2ccccc2)c2nc3ccc(Cl)cc3[nH]2)cc1`, the TGI in the assay with CCRF-CEM leukemia is more than 84 µM; in the assay with NCI/ADR-RES ovarian, more than 100 µM; with TK-10 renal, more than 100 µM; with SF-268 CNS it was more than 100 µM; with LOX IMVI melanoma, more than 70.6 µM; with NCI-H226 lung, more than 85.1 µM. Further, the TGI was more than 75.5 µM with HCC-2998 colon, more than 100 µM in the assay with SNB-19 CNS, more than 93.9 µM with RXF 393 renal and more than 87.3 µM with SF-295 CNS. Moreover, the GI50 in the assay on NCI/ADR-RES ovarian is 30.7 µM.
